Assays:
[1] = test system: IPEX and secondary conditions related to IPEX; test: Administration of effective amounts to subjects with IPEX (additional studies); assay type: in vivo; conditions: diabetes, thyroid dysfunction, enteropathy, eczema and others
[2] = test system: effector memory T cells (TEM); test: Kv1.3 expression, cytokine production and proliferation of TEM in activated PBMCs from IPEX subjects, with or without ShK-186 (flow cytometry, RT-QPCR); assay type: cell-based, human
Method: This example is performed to evaluate the expression of Kv1.3 channels by TEM found in IPEX subjects compared to controls, and to characterize the responsiveness of IPEX subject samples to treatment with therapeutic peptides such as the ShK-based peptide, ShK-186, formulated into a pharmaceutical composition. To evaluate Kv1.3 expression, peripheral blood mononuclear cells from IPEX and healthy controls are isolated. In the first phase of the example, the cells are activated in vitro with anti-CD3 antibodies or mitogens and then subjected to immunostaining and multicolor flow cytometry.
In the second phase, matching cell aliquots are analyzed by RT-QPCR for quantitation of Kv1.3 mRNA. In the third phase, matching cell aliquots are used to study the ability of ShK-186 to block the proinflammatory and proliferative potential of TEM from IPEX subjects versus controls. Cytokines (IFN-γ and IL-2, -4, -10, -17, and -21) and perforin are detected by intracellular cytokine staining and flow cytometry in resting or activated cells in the presence or absence of ShK-186. In this example, ten IPEX and ten normal controls are studied.
Peripheral blood mononuclear cells (PBMCs) are evaluated by multiparameter flow cytometry for cell surface expression of CD4 and CD25 and intracellular FOXP3. FACS sorting of all stimulated and stained samples will also be performed.

## (L-PhosphoTyr)-AEEAc-RSCIDTIPKSRCTAFQCKHSMKYRLSFCRKTCGTC-amide [ShK-186]
[1]
  clinically relevant improvements in IPEX and secondary conditions related to IPEX: produces clinically relevant improvements
[2]; PBMCs from IPEX subjects vs controls
  proliferation of TEM: reduces
[2]; PBMCs from IPEX subjects vs healthy controls, activated with anti-CD3 antibodies or mitogens
  expression of Kv1.3 channels by TEM: reduces
[2]; intracellular cytokine staining and flow cytometry, resting or activated cells
  IFN-γ and IL-2, -4, -10, -17, and/or -21 production by TEM: reduces
